Laboratory results taken from patent US11718650B2, “Immunogenic peptides and their use in immune disorders” (IMCYSE SA, priority 2006, dated 2023).
Where two headings read alike, the source gives them in different places. Non-standard residues stand in square brackets, D forms with d. No end group written: not given here.

Tests used:
[1] = tested on: WEHI cells; assay: apoptosis of peptide-loaded WEHI cells by cytolytic T cell clones, with inhibitors; assay type: cell-based, mouse; conditions: p21-35 loaded WEHI cells and a cytolytic T cell clone
Method: For inhibition of GZ-B activity, Z-AAD-CMK (Calbiochem) or 3,4-dichloroiso-coumarin (DCIC) (SIGMA) were added at indicated concentrations during all the co-culture period.
Experiments were carried out with p21-35-loaded CD11c dendritic (FIG. 13b: left panel) or WEHI cells (FIG. 13b: right panel). Upon incubation with R3TB7 virtually all dendritic cells (DC) or Wehi cells were induced into apoptosis as measured by caspase 3 activation.
Apoptosis can be induced by either the Fas-FasL pathway or by secretion of cytotoxic granules containing granzymes. Attempts were made to inhibit each of these pathways. Addition of increasing concentrations of an antibody towards FasL, or of granzyme B inhibitors, to a cell culture containing p21-35 loaded WEHI cells and a cytolytic T cell clone, increased the number of surviving WEHI cells in a dose-dependent manner (FIG. 13c). In a number of experiments it was shown that the anti-FasL antibody restored up to 80% of WEHI cell survival.
To further ascertain that APC lysis required direct contact with cytolytic T cells through MHC class II presentation of p21-35, an experiment was carried out in which two identical populations of Wehi cells were loaded with either p21-35 or with an irrelevant peptide (p71-85). These two populations could be distinguished by differential CFSE labelling. It can be seen from FIG. 13e that, while WEHI cells presenting p21-35 were fully lysed, only 40% of p71-85-loaded cells were affected.

[2] = tested on: CD4+CD25(−) T cells; assay: bystander suppression of anti-CD3 activated CD4+CD25(−) T cells; assay type: cell-based, mouse; conditions: 72 h, 2 concentrations (2mM, 4 mM)
Method: Bystander suppression assays. Target CD4+CD25− T cells and T helper clones were labelled with 125nM CFSE (Molecular Probes) for 15 minutes in PBS at 37° C. The reaction was stopped by washing the cells with PBS containing 30% FBS. These cells (3×10^5) were cocultured with 10^5 cytotoxic CD4+ T cell clones and cell depleted splenocytes with 1 μg/ml anti-CD3 antibody (eBioscience), For suppression of T helper clones, 10^5 cells were co-cultured with the same number of cytotoxic cells and T cell depleted splenocytes. After 48 h or 72 hours, cells were collected and analysed by flow cytometry.
First, the capacity of Tregs was assayed to suppress the proliferation of CD4+CD25(−) T cells after anti-CD3 activation in the presence of antigen-presenting cells. […] This effect was even more pronounced at 72 h for the second T cell clone (lower middle panel). […] The control experiment in which Treg was replaced by an identical number of unlabeled CD4+CD25(−) T cells (right panels) eliminated a possible artefact related to variable numbers of total cells in the culture medium.
Next, the kinetics of suppression were analysed. In the experiments shown in FIG. 14b, it can be seen that 48 and 70% of CFSE-labelled CD4+CD25(−) T cells express Annexin V after 18 and 24 h co-incubation with a cytolytic Treg (R3TB7), respectively, using the same assay system as in FIG. 14a. […]

[3] = tested on: dendritic cells; assay type: cell-based
[4] = tested on: Patients; assay: patients with birch pollen and apple allergy treated with peptide; assay type: in vivo, human; conditions: 3 SC injections
Description: Patients presenting with allergic symptoms upon exposure to birch pollen together with an oro-pharyngeal allergy to ingestion of apple and treated by 3 SC injections of peptide CGPC […] [SEQ ID.

[5] = tested on: C57BL/6 mice; assay: prevention of multiple sclerosis by peptide immunisation; assay type: in vivo, mouse; conditions: 5 injections 20 μg in IFA at 14 days interval before disease induction
Method: In the model group, 3 C57BL/6 mice received, at day 0, SC injection of 100 μg MOG peptide/400 μg Mycobacterium butyricum in CFA and ip injection of 300 ng Bortetella pertussis in NaCl. At day +2, a second injection of B. pertussis was given.
In the prevention group, 5 C57BL/6 mice are immunised by 5 injections with 20 μg CSMOG peptide (CHGS […] [SEQ ID. NO: 32]), which contains the sequence motif C-X(2)-S, in IFA at 14 days interval before disease induction as in the model group. Control experiments are performed with the peptide [SEQ ID. NO: 33] lacking the motif at its N-terminus.
Scores were established as 0: no disease, 1: limp tail, 2: limp tail and loss of weight higher than 10%, 3: partial paralysis of hind limbs.

[6] = tested on: polyclonal CD4+CD25− cells; assay: bystander suppression assay with CD4+CD25− cells from EAE animals; assay type: cell-based, mouse; conditions: 20 μg SC on aluminium hydroxide, three injections
Method: Groups of C57BL/6 mice are immunised subcutaneously (20 μg) with peptide (CHGS […] [SEQ ID. NO: 32], which contains the sequence motif C-X(2)-S) or control peptide ([…] [SEQ ID. NO: 33]) adsorbed onto aluminium hydroxide, Three injections are performed at 2-week intervals. Ten days after the last immunisation, mice are sacrificed and CD4+ T cells (2×10^6 cells) are prepared from the spleen using magnetic beads. CD4+ T cells are then stimulated in vitro by the MOG T cell epitope (20 μg/ml) presented by adherent spleen cells (2×10^6 cells).
After four re-stimulations, a T cell line is tested in a bystander suppression assay with, as target cells, polyclonal CD4+CD25− cells obtained from animals in which EAE (Experimental autoimmune encephalomyelitis) was effective.

[7] = tested on: spleen CD4+ T cells; conditions: mouse, in vivo, ip
[8] = tested on: BALB/c mice; conditions: mouse, in vivo
[9] = tested on: WEHI cells; assay: Wehi cell apoptosis by the G121 regulatory T cell clone with various forms of peptide; assay type: cell-based, mouse
[10] = tested on: G221N; assay: peptide processing assay with effector T cell clone G221N; assay type: cell-based, mouse
[11] = tested on: CD4+ T cell; assay: CD4+ T cell proliferation elicited by single amino acid p21-35 mutants (IP immunisation in alum); conditions: mouse, in vivo
Method: Based on findings showing that regulation can be more readily achieved with analogues of T cell epitopes, the capacity of various single amino acid p21-35 mutants to elicit CD4+ T cell after IP immunisation in alum was determined. […] The mutated form of mp21-35 (mp21-35Asn) was therefore use in the remainder of the experiments in this Example.

[12] = tested on: MHC II cleft; assay: affinity for the MHC II cleft; assay type: binding
[13] = tested on: polyclonal CD4 cells; assay: apoptosis of polyclonal CD4 cells from peptide 524-543 immunised NOD mice; assay type: cell-based, mouse; conditions: APC loaded with peptide 524-543
Description: NOD mice are immunised with peptide containing the thioredoxin consensus sequence in IFA (incomplete Freund adjuvans) from the age of 2 weeks. T cells are expanded in vitro to generate clones with regulatory properties.
The table in FIG. 23 represents the percentage of double positive cells (dead cells) after substraction of background values obtained without the regulatory population.

[14] = tested on: NOD mice; assay: spontaneous insulin-dependent diabetes in NOD mice, GAD65 derived peptide; assay type: in vivo, mouse
Description: Non-obese diabetes (NOD) mice constitutes a suitable animal model for spontaneous insulin-dependent diabetes.
Adoptive transfer of Treg at the age of 2 weeks in NOD mice, namely before the onset of insulitis (3 weeks of age) is shown to fully prevent the onset of diabetes.
Direct immunisation of NOD mice with the peptide CRLC […] [SEQ ID.
Immunisation with peptide CRLC […] [SEQ ID.

O=C(O)CN(CCOCCOCCN(CC(=O)O)CC(=O)O)CC(=O)O [EGTA]
restoration of WEHI cell survival [1]: only partial restoration of Wehi cell survival | inhibition of the suppression of bystander T cells [2]: Basically no inhibition

(CGPC)D-isomer LRAVESYLLAH ([dC]G[dP][dC]LRAVESYLLAH; cysteine pairing not given here) [SEQ ID. NO: 47]
apoptosis of dendritic cells by CD4+ T cells of treated subjects ([3]; dendritic cells loaded with the Mal d 1 antigen): resulted in dendritic cell apoptosis | apoptosis of dendritic cells by CD4+ T cells of treated subjects ([3]; dendritic cells presenting the Bet v 1 antigen, three SC injections of 50 μg on alum): induced apoptosis of dendritic cells presenting the Bet v 1 antigen | reaction to pollen exposure or apple contact [4]: failed to react to either exposure to pollen or contact with apple

CHGS YRSPFSRVVHLYR (CHGSYRSPFSRVVHLYR; reducing motif fused to MOG (Myelin Oligodendrocyte Glycoprotein) peptide) [SEQ ID. NO: 32]
development of the syndrome (clinical score) [5]: completely abolishes the development of the syndrome | capacity of T cell line from immunised animals to induce death in target cells [6]: have the capacity to induce death in target cells

QYIKANSKFIGITELGGCHGSEPCIIHRGKPF [mp21-35]
Der p 2-induced proliferation of spleen CD4+ T cells [7]: significant reduction | suppression of airway inflammation and hyperreactivity [8]: even more effective in suppressing airway inflammation and hyperreactivity | efficiency in inducing Wehi cell apoptosis in the presence of the G121 Treg, as compared to p21-35 [9]: 100 fold | requirement for internalisation, fusion with and acidification of late endosomes [10]: required internalisation into antigen-presenting cells | requirement for peptide processing [10]: had to be processed for efficient presentation

IIe28Asn: IIe28Asn substitution of Der p 2 peptide p21-35 (CHGSEPCNIHRGKPF; UniProt P49278 38-52, looked up, fragment I28N)
capacity to induce T cell proliferation [11]: only slightly reduced | affinity for the MHC II cleft versus natural p21-35 [12]: lower affinity

CRLC KVAPVIKARMM (CRLCKVAPVIKARMM; modified fragment of glutamic acid decarboxylase (GAD65)) [SEQ ID. NO: 35]
apoptosis induced by polyclonal cells from immunised mice [13]: induce apoptosis in polyclonal CD4 cells | diabetes and insulitis, suppression by immunisation ([14]; after 15 weeks of age): suppress diabetes and insulitis | diabetes and insulitis, prevention by direct immunisation ([14]; from the age of 2 weeks): fully prevent diabetes and lesions of insulitis
